The IC50 is the midpoint of a concentration-inhibition curve. The low end stands for inhibition by little substance, the high end for a need for much substance. The Ki is the dissociation constant of the complex between target and ligand, obtained from inhibition or displacement.

For experiment [1], the target named is Serine/threonine-protein kinase PAK 3 (Homo sapiens, UniProt O75914). Briefly: Inhibition of PAK3-mediated MEK1 phosphorylation at Ser298 in human EBC1 cells after 2 hrs by HTRF assay. The experiment is classed as cell-based. As to conditions: pooled result: one value given for 3 cell lines, strains, targets or settings. For orientation: In TR-FRET formats the signal depends on donor and acceptor labels being close together.

The target in experiment [2] is Serine/threonine-protein kinase PAK 1 (Homo sapiens, UniProt Q13153). Briefly: Inhibition of human recombinant GST-tagged PAK1 kinase domain-mediated 5FAM-RRRLSFAEPG phosphorylation expressed in Sf9 cells preincubated for 10 mins prior to substrate addition measured after 30 mins by microfluidic mobility shift assay.
Chain of Serine/threonine-protein kinase PAK 1 (Q13153 whole entry, the tested form may be a part): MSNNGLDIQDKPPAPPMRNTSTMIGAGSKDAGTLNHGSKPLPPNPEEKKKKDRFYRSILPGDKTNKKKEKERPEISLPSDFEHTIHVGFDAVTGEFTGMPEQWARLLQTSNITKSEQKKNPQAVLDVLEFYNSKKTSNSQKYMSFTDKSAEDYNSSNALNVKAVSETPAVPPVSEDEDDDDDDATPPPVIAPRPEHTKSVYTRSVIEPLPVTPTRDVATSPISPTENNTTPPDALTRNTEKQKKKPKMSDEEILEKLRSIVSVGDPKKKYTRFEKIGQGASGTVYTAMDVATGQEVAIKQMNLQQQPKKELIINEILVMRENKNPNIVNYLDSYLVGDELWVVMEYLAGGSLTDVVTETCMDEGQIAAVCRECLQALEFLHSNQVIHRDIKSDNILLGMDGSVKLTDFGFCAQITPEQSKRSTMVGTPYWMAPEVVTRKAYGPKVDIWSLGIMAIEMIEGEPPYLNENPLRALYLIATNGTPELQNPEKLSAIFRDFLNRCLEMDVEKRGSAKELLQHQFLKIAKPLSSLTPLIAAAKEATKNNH

Chain of Serine/threonine-protein kinase PAK 3 (O75914 whole entry): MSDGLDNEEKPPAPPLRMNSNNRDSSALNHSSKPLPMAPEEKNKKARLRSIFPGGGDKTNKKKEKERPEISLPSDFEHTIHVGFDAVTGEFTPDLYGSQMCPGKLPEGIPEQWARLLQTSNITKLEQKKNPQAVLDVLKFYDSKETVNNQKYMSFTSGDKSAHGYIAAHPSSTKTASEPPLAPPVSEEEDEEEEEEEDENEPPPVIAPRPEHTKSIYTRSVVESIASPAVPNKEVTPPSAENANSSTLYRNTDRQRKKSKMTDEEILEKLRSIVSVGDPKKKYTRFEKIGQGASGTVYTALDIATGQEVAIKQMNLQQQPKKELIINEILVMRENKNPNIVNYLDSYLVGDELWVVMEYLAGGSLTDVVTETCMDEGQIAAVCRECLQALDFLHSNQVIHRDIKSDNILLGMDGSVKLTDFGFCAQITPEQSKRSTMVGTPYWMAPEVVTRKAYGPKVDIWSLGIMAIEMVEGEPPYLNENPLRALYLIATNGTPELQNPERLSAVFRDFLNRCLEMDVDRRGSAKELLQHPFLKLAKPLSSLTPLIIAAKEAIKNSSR

The molecule `COCCN(Cc1cc(F)cc2[nH]ncc12)c1nccc(Nc2cc(C3CC3)[nH]n2)n1` gave a half-inhibitory concentration (IC50) in experiment [1] of 64.1 nM.

On to `C[C@H](Nc1nccc(Nc2cc(C3CCC3)[nH]n2)n1)c1ccc2[nH]ccc2c1`, for which the IC50 in experiment [1] is 133 nM.

In experiment [1], `CC(CO)N(Cc1cc(F)cc2[nH]ncc12)c1nccc(Nc2cc(C3CC3)[nH]n2)n1` (stereo not given) had a 50% inhibitory concentration (IC50) of 70.8 nM.

On to `C[C@H](Nc1nccc(Nc2cc(C3CC3(F)F)[nH]n2)n1)c1ccc2[nH]cnc2c1` (stereo not given in full), for which the inhibition constant Ki in experiment [2] stood at 5.13 nM. The molecule also yielded a 50% inhibitory concentration (IC50) in experiment [1] of 244 nM.

The record behind these values is ChEMBL document CHEMBL2384931, “PAK1: A Therapeutic Target for Cancer Treatment” (ACS Med Chem Lett, 2013).
